# Laboratory results reported in patent US20190201430A1, “TREATING OCULAR NEOVASCULARIZATION” (Massachusetts Eye and Ear Infirmary, priority 2014, published 2019).
# Key:
# caveolin-1 [1] = assay: Western blotting of H2O2 induced caveolin-1 phosphorylation in HUVEC; format: cell-based, human; conditions: AICAR 2 mM 2 h
# Procedure: (§1) HUVECs (Lonza, Walkersville, Md.) were cultured in Endothelial Growth Medium (EGM, Lonza, Walkersville, Md.). For all experiments, cells were grown at 37° C. in a humidified atmosphere of 5% CO2 and 95% air. Experiments were performed on cells below passage 3 to 6 grown to 80-90% confluence.
# (§2) Protein extraction and western blotting were carried out as described previously (Morizane et al. JBC). Densitometric analysis of bands was performed using ImageJ software. Lane-loading differences were normalized by β-actin.
# (§3) Cells were transfected with siRNAs using Nucleofection kit (Amaxa Biosysteins, Gaithersburg, Md.), following the manufacturer's protocol. The medium was changed at 6 h after transfection. The down-regulation of each protein was evaluated at 3 days after nucleofection.
# c-Abl [2] = assay: Western blotting of H2O2 induced c-Abl phosphorylation in HUVEC; format: cell-based, human; conditions: AICAR 2 mM 2 h
# Procedure: as §1, §2, §3
# AMPK = assay: Western blotting of AMPK phosphorylation in HUVEC (Example 1); format: cell-based, human; conditions: each concentration of AICAR for 2 h, FIG. 2A
# Procedure: as §1, §2
# prdx1/c-Abl complex [3] = assay: Co-immunoprecipitation of prdx1 and c-Abl under H2O2; format: cell-based, human; conditions: AICAR 2 mM 2 h, H2O2 2 mM 30 min
# Procedure: Immunoprecipitation was performed with the Universal Magnetic Co-IP Kit (Active Motif North America, Carlsbad, Calif.), according to the manufacturer's instruction.
# as §3
# VEGFR2 = assay: Western blotting of VEGF induced VEGFR2 phosphorylation in HUVECs; format: cell-based, human; conditions: AICAR 2 mM 2 h, VEGF 12.5 ng/mL 0 to 60 min; FIG. 8C,D
# Procedure: Human umbilical vein endothelial cells (HUVECs) were cultured in endothelial growth medium (EGM, Lonza, Walkersville, Md.). Normal human dermal fibroblasts (NHDFs) were cultured in fibroblast basal medium (ATCC, Rockville, Md.). Cells were grown at 37° C. in a humidified atmosphere of 95% air, 5% CO2. Experiments were performed on cells below passage 3 to 6 grown to 80%-90% confluence. Protein extraction and Western blotting were carried out as described previously (Morizane et al. JBC (26)). We conducted a densitometric analysis of bands using ImageJ software. Lane-loading differences were normalized by β-actin.
# VEGFR2/caveolin-1 = assay: Immunoprecipitation of VEGFR2 with caveolin-1 under VEGF; format: cell-based, human; conditions: AICAR 2 mM 2 h, VEGF 12.5 ng/mL 10 min; FIG. 8F,G
# Procedure: (§4) Immunoprecipitation was performed with the Universal Magnetic Co-IP Kit (Active Motif North America, Carlsbad, Calif.) according to the manufacturer's instruction.
# Akt = assay: Western blotting of Akt phosphorylation in HUVECs (VEGF); format: cell-based, human
# Procedure: (§5) Human umbilical vein endothelial cells (HUVECs) were cultured in endothelial growth medium (EGM, Lonza, Walkersville, Md.). Normal human dermal fibroblasts (NHDFs) were cultured in fibroblast basal medium (ATCC, Rockville, Md.). Cells were grown at 37° C. in a humidified atmosphere of 95% air, 5% CO2. Experiments were performed on cells below passage 3 to 6 grown to 80%-90% confluence.
# (§6) Protein extraction and Western blotting were carried out as described previously (Morizane et al. JBC (26)). We conducted a densitometric analysis of bands using ImageJ software. Lane-loading differences were normalized by β-actin.
# (§7) Cells were transfected with siRNAs using a Nucleofection kit (Amaxa Biosystems, Gaithersburg, Md.), following the manufacturer's protocol. The medium was changed 6 h after transfection. The down-regulation of each protein was evaluated 3 days after nucleofection.
# PTEN = assay: Western blotting of PTEN phosphorylation in HUVECs; format: cell-based, human; conditions: AICAR 2 mM, presence or absence of VEGF; FIG. 9A,D
# Procedure: as §5, §6
# HUVEC monolayer = assay: In vitro vascular permeability assay (Alexa 555-BSA leakage); format: cell-based, human; conditions: AICAR 2 mM 2 h, VEGF 12.5 ng/mL 10 min; FIG. 10A
# Procedure: We conducted the in vitro vascular permeability assay using Alexa Flour 555-labeled bovine serum albumin (BSA) (Invitrogen) and an In Vitro Vascular Permeability Assay kit (Millipore). According to the manufacturer's instructions, HUVECs were seeded at a density of 1×10^5 on a collagen-coated polystyrene filter. After a confluent monolayer was formed, each chamber was treated with AICAR or stimulated with VEGF. To measure endothelial permeability, 100 μL of Alexa Flour 555-BSA solution (0.050 mg/mL) was added into the insert and incubated for 10 min, and then the insert was removed and 100 μL medium was collected from the bottom chamber.
# The fluorescent density of samples was analyzed on a SPECTRAmax GEMINI XS Microplate Spectrofluorometer (Molecular Devices, Sunnyvale, Calif.) at excitation and emission wavelengths of 555 nm and 565 nm, respectively.
# caveolin-1 [4] = assay: Western blotting of VEGF induced caveolin-1 phosphorylation in HUVECs; format: cell-based, human; conditions: AICAR 2 mM 2 h
# Procedure: as §5, §6, §7
# c-Abl [5] = assay: Western blotting of VEGF induced c-Abl phosphorylation in HUVECs; format: cell-based, human; conditions: AICAR 2 mM 2 h
# Procedure: as §5, §6, §7
# prdx1/c-Abl complex [6] = assay: Co-immunoprecipitation of prdx1 and c-Abl under VEGF; format: cell-based, human; conditions: AICAR 2 mM 2 h, VEGF 12.5 ng/mL 10 min
# Procedure: as §4, §7
# [7] = tested on: retinoblastoma xenografts; conditions: AICAR-treated retinoblastoma xenografts; cited from earlier work
# endothelial cells = conditions: in the absence of VEGF; cited from earlier work
# [8] = AMPKα1 or α2 siRNA HUVEC, H2O2 2 mM 30 min, FIG. 3
# [9] = AMPKα1 or α2 siRNA, VEGF 12.5 ng/mL 10 min, FIG. 13
smiles,measurement,setting,value
"NC(=O)c1ncn([C@@H]2O[C@H](CO)[C@@H](O)[C@H]2O)c1N [AICAR, 5-Aminoimidazole-4-carboxamide riboside]",inhibitory effect of AICAR on H2O2 induced caveolin-1 phosphorylation after knockdown of either AMPKα isoform,caveolin-1 [1]; [8],abolished
same,H2O2 induced phosphorylation of caveolin-1,"caveolin-1 [1]; HUVEC, then H2O2 0.5-2.0 mM 30 min, FIG. 1A,B",significantly suppressed
same,H2O2 induced caveolin-1 phosphorylation in c-Abl siRNA cells,"caveolin-1 [1]; c-Abl siRNA HUVEC, H2O2 2 mM 30 min, FIG. 5D,E",did not change caveolin-1 phosphorylation significantly
same,inhibitory effect of AICAR on H2O2 induced caveolin-1 phosphorylation in cells lacking prdx1,"caveolin-1 [1]; prdx1 siRNA HUVEC, H2O2 2 mM 30 min, FIG. 6A,B",abolished
same,inhibitory effect of AICAR on H2O2 induced c-Abl phosphorylation after knockdown of either AMPKα isoform,c-Abl [2]; [8],abolished
same,H2O2 induced phosphorylation of c-Abl,"c-Abl [2]; HUVEC, then H2O2 0.5-2.0 mM 30 min, FIG. 1A,C",significantly suppressed
same,inhibitory effect of AICAR on H2O2 induced c-Abl phosphorylation in cells lacking prdx1,"c-Abl [2]; prdx1 siRNA HUVEC, H2O2 2 mM 30 min, FIG. 6A,C",abolished
same,AMPK phosphorylation after AICAR administration,AMPK,phosphorylated AMPK dose-dependently
same,H2O2 induced dissociation between prdx1 and c-Abl,prdx1/c-Abl complex [3]; FIG. 6D,inhibited
same,inhibitory effect of AICAR on dissociation between c-Abl and prdx1 after deletion of AMPKα1 or α2,"prdx1/c-Abl complex [3]; AMPKα1 or α2 siRNA HUVEC, FIG. 6F,G",decreased
same,VEGFR2 phosphorylation upon VEGF stimulation,VEGFR2,no effect
same,VEGFR2 dissociation from caveolin-1 upon VEGF stimulation,VEGFR2/caveolin-1,no effect
same,VEGF induced Akt phosphorylation,"Akt; AICAR 2 mM 2 h, VEGF 12.5 ng/mL 0 to 60 min, FIG. 8C,E",significantly suppressed and delayed
same,Akt phosphorylation state on AICAR treatment (time course),"Akt; AICAR 2 mM, presence or absence of VEGF, FIG. 9A,C",Akt dephosphorylation
same,inhibitory effect of AICAR on VEGF-induced Akt phosphorylation after knockdown of either AMPKα isoform,"Akt; AMPKα1 or α2 siRNA, AICAR 2 mM 2 h, VEGF 12.5 ng/mL 10 min, FIG. 13",abolished
same,effects of AICAR on Akt dephosphorylation after PTEN knockdown,"Akt; PTEN siRNA, AICAR 2 mM 2 h, VEGF 12.5 ng/mL 10 min, FIG. 9E,F",abrogated
same,PTEN phosphorylation on AICAR treatment (time course),PTEN,resulted in AMPK and PTEN phosphorylation
same,VEGF-induced albumin leakage,HUVEC monolayer,significantly suppressed
same,VEGF induced phosphorylation of caveolin-1,"caveolin-1 [4]; VEGF 12.5 ng/mL 0 to 60 min, FIG. 11A,C",significantly suppressed
same,inhibitory effect of AICAR on VEGF-induced caveolin-1 phosphorylation after knockdown of either AMPKα isoform,caveolin-1 [4]; [9],abolished
same,inhibitory effect of AICAR on VEGF-induced caveolin-1 phosphorylation in cells lacking prdx1,"caveolin-1 [4]; prdx1 siRNA, VEGF 12.5 ng/mL 10 min, FIG. 15A,C",abolished
same,VEGF induced phosphorylation of c-Abl,"c-Abl [5]; VEGF 12.5 ng/mL 0 to 60 min, FIG. 11A,B",significantly suppressed
same,inhibitory effect of AICAR on VEGF-induced c-Abl phosphorylation after knockdown of either AMPKα isoform,c-Abl [5]; [9],abolished
same,inhibitory effect of AICAR on VEGF-induced c-Abl phosphorylation in cells lacking prdx1,"c-Abl [5]; prdx1 siRNA, VEGF 12.5 ng/mL 10 min, FIG. 15A,B",abolished
same,VEGF induced dissociation between prdx1 and c-Abl,prdx1/c-Abl complex [6]; FIG. 15D,inhibited
same,ability of AICAR to inhibit VEGF induced prdx1/c-Abl dissociation after knockdown of AMPKα1 or α2,"prdx1/c-Abl complex [6]; AMPKα1 or α2 siRNA, FIG. 15F,G",decreased
same,tumor vessel formation,[7],decrease in tumor vessel formation
same,endothelial proliferation,endothelial cells,suppressed endothelial proliferation
